Test results as given in PubChem BioAssay (NCI).
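Cultured in 96-well plates, cells were exposed to test compound for 48 hours across five concentrations. GI50 marks 50% less growth. TGI: concentration producing complete growth inhibition.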

Tests used:
Assay in all cases: NCI anticancer screen, dose series, 48 h
A498 renal = test system: A498 renal
HCC-2998 colon = test system: HCC-2998 colon
LOX IMVI melanoma = test system: LOX IMVI melanoma
RXF 393 renal = test system: RXF 393 renal
SF-295 CNS = test system: SF-295 CNS
SK-MEL-5 melanoma = test system: SK-MEL-5 melanoma
SK-OV-3 ovarian = test system: SK-OV-3 ovarian
SN12C renal = test system: SN12C renal
U251 CNS = test system: U251 CNS
UACC-62 melanoma = test system: UACC-62 melanoma

Structure (SMILES) | TGI (A498 renal) [µM] | TGI (HCC-2998 colon) [µM] | TGI (LOX IMVI melanoma) [µM] | TGI (RXF 393 renal) [µM] | TGI (SF-295 CNS) [µM] | TGI (SK-MEL-5 melanoma) [µM] | TGI (SK-OV-3 ovarian) [µM] | TGI (SN12C renal) [µM] | TGI (U251 CNS) [µM] | TGI (UACC-62 melanoma) [µM] | GI50 (A498 renal) [µM] | GI50 (HCC-2998 colon) [µM] | GI50 (LOX IMVI melanoma) [µM] | GI50 (RXF 393 renal) [µM] | GI50 (SF-295 CNS) [µM] | GI50 (SK-MEL-5 melanoma) [µM] | GI50 (SK-OV-3 ovarian) [µM] | GI50 (SN12C renal) [µM] | GI50 (U251 CNS) [µM] | GI50 (UACC-62 melanoma) [µM]
CCOC(=O)CNC(=O)N(CC)C12CC3CC(CC(C3)C1)C2 | 274 | 402 | 252 | 388 | 304 | 195 | 216 | 414 | 239 | 218 | – | – | – | – | – | – | – | – | – | –
CCOP(=O)(OCC)C(c1ccc(F)cc1)N(C(=O)NC(F)(F)F)c1cccc(C(F)(F)F)c1 (stereo not drawn) | > 100 | > 100 | > 100 | > 100 | > 100 | > 100 | > 100 | > 100 | > 100 | > 100 | – | – | – | – | – | – | – | – | – | –
CC(=O)Nc1ccc(/C=C/c2ccc(NC(=O)Nc3ccc(/C=C/c4ccc(NC(C)=O)cc4S(=O)(=O)O)c(S(=O)(=O)O)c3)cc2S(=O)(=O)O)c(S(=O)(=O)O)c1 | > 100 | > 100 | > 100 | > 100 | > 100 | > 100 | > 100 | > 100 | > 100 | > 100 | – | – | – | – | – | – | – | – | – | –
COc1ccccc1CNCCCN1C(=O)c2ccc3c4c(ccc(c24)C1=O)C(=O)N(CCCNCCNCCCN)C3=O | 20.1 | 10.3 | 10.4 | 7.12 | 12.6 | 3.02 | 26.3 | 8.07 | 10.1 | 3.82 | 5.01 | 2.25 | 2.1 | 1.65 | 2.77 | 1.57 | 4.04 | 2.09 | 1.17 | 1.68
CCC(C)NC1=NCC(C)S1 (stereo not drawn) | > 100 | > 100 | > 100 | > 100 | > 100 | > 100 | > 100 | > 100 | > 100 | > 100 | – | – | – | – | – | – | – | – | – | –
CC1CC2=C(S(=O)(=O)c3ccccc3)CC(S(=O)(=O)c3ccccc3)(S(=O)(=O)c3ccccc3)CC21 (stereo not drawn) | > 100 | > 100 | > 100 | > 100 | > 100 | > 100 | > 100 | > 100 | > 100 | > 100 | – | – | – | – | – | – | – | – | – | –
Clc1ccc(C[P+](c2ccccc2)(c2ccccc2)c2ccccc2)c(Cl)c1 | 30.6 | 15.1 | 12.9 | 8.67 | 12.3 | 3.38 | 24.4 | 12.4 | 18.8 | 12.6 | – | – | – | – | – | – | – | – | – | –
CCOC(=O)Cn1c(=O)ccn(COCCO)c1=O | > 100 | > 100 | > 100 | > 100 | – | > 100 | – | > 100 | > 100 | – | – | – | – | – | – | – | – | – | – | –
COc1cc2oc(-c3ccc(O)cc3)c(OC)c(=O)c2c(O)c1OC | > 100 | 72.8 | – | > 100 | > 100 | > 100 | > 100 | > 100 | > 100 | > 100 | 11 | 18.8 | – | 29 | 36.1 | 70.1 | 49.6 | 33.7 | – | 79.3
C[C@@H]1Nc2cc(NC(=O)OCCF)nc(N)c2N=C1c1ccccc1 | – | – | – | > 100 | 20.1 | < 0.0001 | – | > 100 | 12.2 | > 100 | < 0.0001 | – | – | – | – | – | – | – | – | –
CCOC(=O)c1ccc(N[C@@H]2c3cc4c(cc3C(c3cc(OC)c(O)c(OC)c3)[C@H]3C(=O)OCC32)OCO4)cc1O (stereo partly drawn) | 2.81 | 3.97 | 0.442 | 6.77 | 2.96 | 3.02 | 2.2 | – | – | 2.4 | – | – | – | – | – | – | – | – | – | –
C/C(=N/NC(N)=S)c1ccc[nH]1 | > 100 | > 100 | > 100 | > 100 | > 100 | > 100 | > 100 | > 100 | > 100 | > 100 | – | – | – | – | – | – | – | – | – | –
COCCCNc1nc(N)c(C#N)c(C#N)c1C#N | > 10 | > 10 | > 10 | > 10 | > 10 | > 10 | > 10 | > 10 | > 10 | > 10 | – | – | – | – | – | – | – | – | – | –
CC1CCCCNC1=S (stereo not drawn) | > 10 | – | > 10 | > 10 | > 10 | > 10 | > 10 | > 10 | > 10 | > 10 | – | – | – | – | – | – | – | – | – | –
COc1ccc(S(=O)(=O)c2ccccc2[N+](=O)[O-])cc1 | > 100 | > 100 | > 100 | > 100 | > 100 | > 100 | > 100 | > 100 | > 100 | > 100 | – | – | – | – | – | – | – | – | – | –
